The record followed here is US7538216B2, “Guanidino phenylalanin compounds used as urokinase inhibitors” (Wilex AG, priority 2002, dated 2009).

SMILES strings stand for the structures. Where a name gives a salt, the structure may show the parent alone.

Type in all cases: biochemical
One experiment addresses T1, plasmin (Homo sapiens, UniProt P00747).
T1 construct: uPA mediates the proteolytic cleavage of plasminogen to give plasmin
Put plainly: In-vitro inhibition of serine proteases of the trypsin type: plasmin. The procedure: (§1) In order to determine the activity of the inhibitor, 200 μl of Tris buffer (0.05 mol/l, containing the inhibitor, 0.154 mol of NaCl/l, 5% ethanol, pH 8.0), 25 μl of substrate (Pefachrome UK or Bz-βAla-Gly-Arg-pNA in H2O; Pentapharm Ltd., Basle, Switzerland) and 50 μl of sc-urokinase (Ribosepharm GmbH, Haan, Germany) were incubated at 25° C. After 3 min, the reaction was terminated by adding 25 μl of acetic acid (50%) and the absorption was determined at 405 nm using a Microplate Reader (MR 5000, Dynatech, Denkendorf, Germany). The Ki values were determined in accordance with Dixon by means of linear regression using a computer program. The Ki values are the means of at least 3 determinations; the standard deviation was less than 25%.
(§2) The inhibitory effect for the enzymes employed was determined in accordance with the principle described in Example 3.

The target in another experiment is T2, sc-urokinase (Homo sapiens, UniProt P00749).
T2 construct: purchased Ribosepharm GmbH, Haan, Germany
Put plainly: In-vitro inhibition of urokinase (chromogenic substrate, Dixon). To be noted: 25° C, pH 8.0; mean of at least 3 determinations. The procedure: as §1

A further experiment addresses thrombin (Homo sapiens, UniProt P00734). Put plainly: In-vitro inhibition of serine proteases of the trypsin type: thrombin. As for the experimental part:
as §1, §2

T1 sequence (P00747 581-810 limits assumed, species assumed): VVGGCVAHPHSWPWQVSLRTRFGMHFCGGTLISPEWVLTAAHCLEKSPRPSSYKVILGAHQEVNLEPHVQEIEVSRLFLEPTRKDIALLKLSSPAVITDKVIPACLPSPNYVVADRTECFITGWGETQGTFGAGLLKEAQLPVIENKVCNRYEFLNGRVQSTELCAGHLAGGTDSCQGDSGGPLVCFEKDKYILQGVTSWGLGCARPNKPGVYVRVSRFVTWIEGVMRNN
T1 sequence (P00747 97-580 partner limits assumed, species assumed): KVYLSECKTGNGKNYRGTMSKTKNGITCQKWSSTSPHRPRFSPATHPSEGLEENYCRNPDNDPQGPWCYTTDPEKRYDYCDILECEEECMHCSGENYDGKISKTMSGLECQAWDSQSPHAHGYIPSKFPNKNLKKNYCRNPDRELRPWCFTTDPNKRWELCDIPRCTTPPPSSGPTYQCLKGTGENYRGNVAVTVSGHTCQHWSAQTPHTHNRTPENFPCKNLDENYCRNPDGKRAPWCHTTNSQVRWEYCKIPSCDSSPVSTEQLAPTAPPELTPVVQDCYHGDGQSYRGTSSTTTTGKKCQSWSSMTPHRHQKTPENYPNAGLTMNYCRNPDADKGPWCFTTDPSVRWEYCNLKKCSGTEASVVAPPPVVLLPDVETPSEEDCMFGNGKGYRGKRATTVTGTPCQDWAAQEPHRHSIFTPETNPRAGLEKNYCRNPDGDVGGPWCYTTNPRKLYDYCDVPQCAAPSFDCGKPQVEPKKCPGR

What is called Ki is the dissociation constant of the complex between target and ligand, obtained from inhibition or displacement. A lower Ki goes with a stronger hold on the target. As to `CCOC(=O)N1CCN(C(=O)[C@H](Cc2cccc(NC(=N)N)c2)NS(=O)(=O)c2c(C(C)C)cc(C(C)C)cc2C(C)C)CC1` [Example 1, Nα-2,4,6-triisopropylphenylsulfonyl-3-guanidino-(L)-phenylalanine-4-ethoxycarbonylpiperazine hydrochloride], the values for the Ki at plasmin, at sc-urokinase and at thrombin were 3.8 µM, 470 nM and at least 12 µM, respectively.
